Legend:
[1] = test system: ducksalad; experiment: Test B flooded paddy test; type: in vivo, Heteranthera limosa; conditions: 1000 g ai/ha, visual rating, scale 0 to 100 (0 no effect, 100 complete control), 13 to 15 days
Summary of the method: (§1)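 Formulated test chemicals went onto postemergence plants measuring 2 to 18 cm, at one to four leaves. For the paddy assay, species had reached two leaves. Scoring took place 13–15 days later by eye, relative to untreated plants, using 0 for no effect up to 100 for full control.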

[2] = test system: cocklebur; experiment: Test B pre-/postemergence herbicide test; type: in vivo, Xanthium strumarium; conditions: for Cocklebur plant response rating: postemergence, scale 0 (no effect) to 100 (complete control)
Summary of the method: (§2)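 Plants compared with untreated controls 13–15 days post-treatment and given a visual 0–100 injury score. Applications: preemergence to seeds; postemergence at 1- to 4-leaf (2–18 cm); paddy species flooded, 2-leaf stage. Vehicle non-phytotoxic, surfactant included.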

[3] = test system: pigweed; experiment: Test B pre-/postemergence herbicide test; type: in vivo, Amaranthus retroflexus; conditions: for Pigweed plant response rating: postemergence, scale 0 (no effect) to 100 (complete control)
Summary of the method: (§3)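 Seeds were planted and treated preemergence with compounds formulated in a non-phytotoxic solvent mixture containing surfactant, while plants at the 1- to 4-leaf stage (2 to 18 cm) received postemergence sprays. Flooded paddy plants were grown to the 2-leaf stage. After 13 to 15 days in a greenhouse, injury was visually rated 0–100 against untreated controls.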

[4] = test system: rice; experiment: Test B flooded paddy test; type: in vivo, Oryza sativa; conditions: 1000 g ai/ha, visual rating, scale 0 to 100 (0 no effect, 100 complete control), 13 to 15 days
Summary of the method: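 Visual ratings, 0 (no effect) to 100 (complete control), made versus controls after 13–15 d greenhouse. Paddy plants treated at 2-leaf stage; postemergence plants at 1- to 4-leaf stage, 2–18 cm tall.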

[5] = test system: large crabgrass; experiment: Test B pre-/postemergence herbicide test; type: in vivo, Digitaria sanguinalis; conditions: for Crabgrass, Large plant response rating: postemergence, scale 0 (no effect) to 100 (complete control)
Summary of the method: as §3

[6] = test system: barnyardgrass; experiment: Test B flooded paddy test; type: in vivo, Echinochloa crus-galli; conditions: 1000 g ai/ha, visual rating, scale 0 to 100 (0 no effect, 100 complete control), 13 to 15 days
Summary of the method: as §1

[7] = test system: rice; experiment: Test B pre-/postemergence herbicide test; type: in vivo, Oryza sativa; conditions: 0 = no effect, 100 = complete control, preemergence
Summary of the method: as §3

[8] = test system: wild oat; experiment: Test B postemergence herbicide test; type: in vivo, Avena fatua; conditions: postemergence, visual rating, scale 0 (no effect) to 100 (complete control)
Summary of the method: (§4)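 Plants grow to 1- to 4-leaf stage (2–18 cm) for postemergence spraying, or to 2-leaf stage for the paddy test. Formulated compound is applied. Greenhouse holding lasts 13–15 days. Response is scored visually relative to controls, 0 no effect to 100 complete control; a dash means no result.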

[9] = test system: giant foxtail; experiment: Test B pre-/postemergence herbicide test; type: in vivo, Setaria faberi; conditions: for Foxtail, Giant plant response rating: postemergence, scale 0 (no effect) to 100 (complete control)
Summary of the method: as §3

[10] = test system: corn; experiment: Test B pre-/postemergence herbicide test; type: in vivo, Zea mays; conditions: for Corn plant response rating: postemergence, scale 0 (no effect) to 100 (complete control)
Summary of the method: as §3

[11] = test system: barnyardgrass; experiment: Test B pre-/postemergence herbicide test; type: in vivo, Echinochloa crus-galli; conditions: for Barnyardgrass plant response rating: postemergence, scale 0 (no effect) to 100 (complete control)
Summary of the method: as §2

[12] = test system: blackgrass; experiment: Test B postemergence herbicide test; type: in vivo, Alopecurus myosuroides; conditions: postemergence, visual rating, scale 0 (no effect) to 100 (complete control)
Summary of the method: as §1

[13] = test system: small flower umbrella sedge; experiment: Test B flooded paddy test; type: in vivo, Cyperus difformis; conditions: 1000 g ai/ha, visual rating, scale 0 to 100 (0 no effect, 100 complete control), 13 to 15 days
Summary of the method: as §1

[14] = test system: Surinam grass; experiment: Test B pre-/postemergence herbicide test; type: in vivo, Urochloa decumbens; conditions: for Surinam Grass plant response rating: postemergence, scale 0 (no effect) to 100 (complete control)
Summary of the method: as §3

[15] = test system: wheat; experiment: Test B postemergence herbicide test; type: in vivo, Triticum aestivum; design: key to Wheat plant response rating: 0 = no effect, 100 = complete control; conditions: postemergence, visual rating, scale 0 (no effect) to 100 (complete control)
Summary of the method: as §4

[16] = test system: morningglory; experiment: Test B pre-/postemergence herbicide test; type: in vivo, Ipomoea coccinea; conditions: for Morningglory plant response rating: postemergence, scale 0 (no effect) to 100 (complete control)
Summary of the method: as §2

[17] = test system: velvetleaf; experiment: Test B pre-/postemergence herbicide test; type: in vivo, Abutilon theophrasti; conditions: for Velvetleaf plant response rating: postemergence, scale 0 (no effect) to 100 (complete control)
Summary of the method: as §3

[18] = test system: lambsquarters; experiment: Test B pre-/postemergence herbicide test; type: in vivo, Chenopodium album; conditions: for Lambsquarters plant response rating: postemergence, scale 0 (no effect) to 100 (complete control)
Summary of the method: as §3

[19] = 125 g ai/ha, 0 = no effect, 100 = complete control, preemergence
[20] = 500 g ai/ha, visual rating, 0 = no effect, 100 = complete control, preemergence

SMILES: CCN(CC)C(=O)c1cccc(NC(=O)c2nn(C(C)(C)C)cc2Br)c1 [Compound 220]
- Ducksalad plant response rating [1]: 40
- Cocklebur plant response rating (0 to 100 scale) [2, 19]: 0
- Plant response rating, Cocklebur [2, 20]: 0
- Cocklebur plant response rating ([2]; 125 g ai/ha, visual rating): 0
- Cocklebur plant response rating ([2]; 500 g ai/ha, visual rating): 10
- Pigweed plant response rating (0 to 100 scale) [3, 19]: 0
- Plant response rating, Pigweed [3, 20]: 100
- Pigweed plant response rating ([3]; 125 g ai/ha, visual rating): 10
- Pigweed plant response rating ([3]; 500 g ai/ha, visual rating): 10
- Rice plant response rating [4]: 0
- Crabgrass, Large plant response rating (0 to 100 scale) [5, 19]: 20
- Plant response rating, Crabgrass, Large [5, 20]: 100
- Crabgrass, Large plant response rating ([5]; 125 g ai/ha, visual rating): 10
- Crabgrass, Large plant response rating ([5]; 500 g ai/ha, visual rating): 10
- Barnyardgrass plant response rating [6]: 0
- Rice plant response rating (0 to 100 scale) ([7]; 125 g ai/ha): 0
- Plant response rating, Rice ([7]; 500 g ai/ha, visual rating): 0
- Oat, Wild plant response rating ([8]; 125 g ai/ha): 0
- Oat, Wild plant response rating ([8]; 500 g ai/ha): 10
- Foxtail, Giant plant response rating (0 to 100 scale) [9, 19]: 0
- Plant response rating, Foxtail, Giant [9, 20]: 10
- Foxtail, Giant plant response rating ([9]; 125 g ai/ha, visual rating): 0
- Foxtail, Giant plant response rating ([9]; 500 g ai/ha, visual rating): 10
- Corn plant response rating (0 to 100 scale) [10, 19]: 0
- Plant response rating, Corn [10, 20]: 0
- Corn plant response rating ([10]; 125 g ai/ha, visual rating): 10
- Corn plant response rating ([10]; 500 g ai/ha, visual rating): 10
- Barnyardgrass plant response rating (0 to 100 scale) [11, 19]: 0
- Plant response rating, Barnyardgrass [11, 20]: 0
- Barnyardgrass plant response rating ([11]; 125 g ai/ha, visual rating): 0
- Barnyardgrass plant response rating ([11]; 500 g ai/ha, visual rating): 0
- Blackgrass plant response rating ([12]; 125 g ai/ha): 0
- Blackgrass plant response rating ([12]; 500 g ai/ha): 0
- Sedge, Umbrella plant response rating [13]: 80
- Surinam Grass plant response rating (0 to 100 scale) [14, 19]: 0
- Plant response rating, Surinam Grass [14, 20]: 10
- Surinam Grass plant response rating ([14]; 125 g ai/ha, visual rating): 0
- Surinam Grass plant response rating ([14]; 500 g ai/ha, visual rating): 10
- Wheat plant response rating ([15]; 125 g ai/ha): 0
- Wheat plant response rating ([15]; 500 g ai/ha): 0
- Morningglory plant response rating (0 to 100 scale) [16, 19]: 0
- Plant response rating, Morningglory [16, 20]: 0
- Morningglory plant response rating ([16]; 125 g ai/ha, visual rating): 0
- Morningglory plant response rating ([16]; 500 g ai/ha, visual rating): 0
- Velvetleaf plant response rating (0 to 100 scale) [17, 19]: 0
- Plant response rating, Velvetleaf [17, 20]: 0
- Velvetleaf plant response rating ([17]; 125 g ai/ha, visual rating): 0
- Velvetleaf plant response rating ([17]; 500 g ai/ha, visual rating): 0
- Lambsquarters plant response rating (0 to 100 scale) [18, 19]: 0
- Plant response rating, Lambsquarters [18, 20]: 70
- Lambsquarters plant response rating ([18]; 125 g ai/ha, visual rating): 10
- Lambsquarters plant response rating ([18]; 500 g ai/ha, visual rating): 20

Reference: patent US20060069132A1, “Azolecarboxamide herbicides” (priority 2004, published 2006)
